Legend:
NTCP = target: T1, NTCP (Homo sapiens, UniProt Q14973); assay: Uptake of TC and CLF into CHO cells stably expressing NTCP; type: cell-based; settings: 45 seconds, sodium-dependent uptake rates
T1 construct: the coding region ligated into pcDNA5/FRT; expressed in transfected cells
T1 sequence (Q14973 1-349): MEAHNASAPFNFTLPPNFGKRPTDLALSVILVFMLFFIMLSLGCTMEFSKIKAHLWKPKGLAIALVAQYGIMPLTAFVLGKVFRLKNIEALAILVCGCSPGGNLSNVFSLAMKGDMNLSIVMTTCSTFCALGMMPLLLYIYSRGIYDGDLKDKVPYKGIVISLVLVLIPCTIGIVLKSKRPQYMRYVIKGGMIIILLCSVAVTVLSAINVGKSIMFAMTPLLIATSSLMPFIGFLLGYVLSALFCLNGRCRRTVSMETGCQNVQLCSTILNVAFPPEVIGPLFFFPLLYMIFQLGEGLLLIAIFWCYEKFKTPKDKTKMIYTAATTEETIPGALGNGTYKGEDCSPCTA
Description: cDNA for human NTCP [Hagenbuch et al., J Clin Invest 1994 March; 93(3): 1326-1331] was cut with EcoRV and HindI and the coding region ligated into pcDNA5/FRT (Invitrogen, Life-Technologies, Carlsbad, Calif.). CHO FlpIn cells (Invitrogen, Life-Technologies) were transfected with the resulting construct using Lipofectamine® 2000 (Invitrogen, Life-Technologies). Stably transfected cells were selected with 550 μg Hygromycin-B in HAM-F12 medium (Gibco, Invitrogen, Life-Technologies). Transfected cells were cloned with the limiting dilution method. […] To further characterize the cloned cells, immunofluorescence localization of NTCP using a polyclonal antibody against NTCP [Kullak-Ublick G et al., Gastroenterology 1997 October; 113(4):1295-1305] was performed as described by Huber R D et al. [Am J Physiol Cell Physiol 2007 February; 292(2):[…]-[…]]. CHO cells expressing OATP1B1, OATP1B3 and OATP2B1 were described previously [Treiber et al., DMD 35:1400-1407, 2007]. For all transport experiments, cells grown on 3 cm culture dishes were cultured for 24 hours in media supplemented with 5 mmol/L sodium-butyrate to increase expression levels of transfected transporters [Palermo D P et al., J Biotechnol 1991 June; 19(1):35-47]. • Transport experiments with uptake of radioactively labeled substrates: These experiments were performed as described by Huber R D et al. […] Uptake was performed in the same buffers as for the radioactive substrates above. For visualization of CLF uptake, cells were immediately inspected with a Leica-DM-IRBE-inverted-microcope (Leica-Microsystems, Wetzlar, Germany) equipped with a Hamamatsu-ORKA-ER-camera (Hamamatsu-Photonoics, Japan). To determine uptake of CLF, cells were solubilized by the addition of 2 ml 1% (w/v) Triton-X-100. After complete solubilization, 1.5 ml was used to measure fluorescence in a Perkin-Elmer LS-5 luminescence-spectrometer set at λexe 486 nm (slit 10 nm) and λem 520 nm (slit 5 nm). Protein was determined with the bicinchoninic acid method using a kit from Interchim (Montfuçon, France). […]

[1] = substrate: CC(CCC(=O)NC(CCCCNC(=S)Nc1ccc(-c2c3ccc(=O)cc-3oc3cc(O)ccc23)c(C(=O)O)c1)C(=O)O)C1CCC2C3C(O)CC4CC(O)CCC4(C)C3CC(O)C12C; assay: ATP-dependent transport of CLF into Sf21 membrane vesicles containing ABCC2; type: biochemical, human; settings: other: 10 μg total protein, presence or absence of 4 mmol/L ATP; 27.0 °C
Description: (§1) The production of recombinant baculovirus was as described by de Waart et al. [Liver Int 2006 April; 26(3):362-368]. ABCC3 and ABCG2-recombinant baculovirus were a kind gift from Borst [Breedveld P. et al., Cancer Res 2004 Aug. 15; 64(16):5804-5811 and Borst P. et al., J Biol Chem 2001 Dec. 7; 276(49):46400-46407.]. ABCB11-recombinant baculovirus was a kind gift from Thompson [Thompson R J et al., Gastroenterology 2002 November; 123(5):1649-1658]. Sf21 cells grown at 27° C. were infected with ABCB11, ABCC2, ABCC3 and ABCG2-cDNA containing baculovirus. Cells were harvested at 2-4 days after infection. Membrane vesicle preparation was as described by de Waart et al. [Liver Int 2006 April; 26(3):362-368].
(§2) Transport studies with membrane vesicles were performed using the rapid filtration technique as described by Heijn M et al. [Am J Physiol 1992 January; 262(1 Pt 1):C104-C110]. Radiolabel was measured with a scintillation counter. When CLF was used as a probe, filters were placed in a glass tube, 0.1% Triton-X-100 was added and the tubes vortexed. Samples were pipetted in 96-well plates (Kartell, Noviglio, Italy) and the amount CLF quantitated by measurement of fluorescence at λexe 485 nm and λcm 520 nm using a NovoStar (BMG-labtech, Offenburg, Germany). […]

[2] = substrate: CC(CCC(=O)NC(CCCCNC(=S)Nc1ccc(-c2c3ccc(=O)cc-3oc3cc(O)ccc23)c(C(=O)O)c1)C(=O)O)C1CCC2C3C(O)CC4CC(O)CCC4(C)C3CC(O)C12C; assay: ATP-dependent transport of CLF into Sf21 membrane vesicles containing ABCC3; type: biochemical, human; settings: other: 30 μg total protein, presence or absence of 4 mmol/L ATP; 27.0 °C
Description: as §1, §2

C[C@H](CCC(=O)NCCS(=O)(=O)O)[C@H]1CC[C@H]2[C@@H]3[C@H](O)C[C@@H]4C[C@H](O)CC[C@]4(C)[C@H]3C[C@H](O)[C@]12C [TC, taurocholate]
Vmax for sodium-dependent transport of TC (NTCP): 6738 pmol TC/mg protein/min
Km (NTCP; read-out: Km for sodium-dependent transport of TC): 16 µM

B1: ABCC2 (Homo sapiens) (protein)
chain: MLEKFCNSTFWNSSFLDSPEADLPLCFEQTVLVWIPLGYLWLLAPWQLLHVYKSRTKRSSTTKLYLAKQVFVGFLLILAAIELALVLTEDSGQATVPAVRYTNPSLYLGTWLLVLLIQYSRQWCVQKNSWFLSLFWILSILCGTFQFQTLIRTLLQGDNSNLAYSCLFFISYGFQILILIFSAFSENNESSNNPSSIASFLSSITYSWYDSIILKGYKRPLTLEDVWEVDEEMKTKTLVSKFETHMKRELQKARRALQRRQEKSSQQNSGARLPGLNKNQSQSQDALVLEDVEKKKKKSGTKKDVPKSWLMKALFKTFYMVLLKSFLLKLVNDIFTFVSPQLLKLLISFASDRDTYLWIGYLCAILLFTAALIQSFCLQCYFQLCFKLGVKVRTAIMASVYKKALTLSNLARKEYTVGETVNLMSVDAQKLMDVTNFMHMLWSSVLQIVLSIFFLWRELGPSVLAGVGVMVLVIPINAILSTKSKTIQVKNMKNKDKRLKIMNEILSGIKILKYFAWEPSFRDQVQNLRKKELKNLLAFSQLQCVVIFVFQLTPVLVSVVTFSVYVLVDSNNILDAQKAFTSITLFNILRFPLSMLPMMISSMLQASVSTERLEKYLGGDDLDTSAIRHDCNFDKAMQFSEASFTWEHDSEATVRDVNLDIMAGQLVAVIGPVGSGKSSLISAMLGEMENVHGHITIKGTTAYVPQQSWIQNGTIKDNILFGTEFNEKRYQQVLEACALLPDLEMLPGGDLAEIGEKGINLSGGQKQRISLARATYQNLDIYLLDDPLSAVDAHVGKHIFNKVLGPNGLLKGKTRLLVTHSMHFLPQVDEIVVLGNGTIVEKGSYSALLAKKGEFAKNLKTFLRHTGPEEEATVHDGSEEEDDDYGLISSVEEIPEDAASITMRRENSFRRTLSRSSRSNGRHLKSLRNSLKTRNVNSLKEDEELVKGQKLIKKEFIETGKVKFSIYLEYLQAIGLFSIFFIILAFVMNSVAFIGSNLWLSAWTSDSKIFNSTDYPASQRDMRVGVYGALGLAQGIFVFIAHFWSAFGFVHASNILHKQLLNNILRAPMRFFDTTPTGRIVNRFAGDISTVDDTLPQSLRSWITCFLGIISTLVMICMATPVFTIIVIPLGIIYVSVQMFYVSTSRQLRRLDSVTRSPIYSHFSETVSGLPVIRAFEHQQRFLKHNEVRIDTNQKCVFSWITSNRWLAIRLELVGNLTVFFSALMMVIYRDTLSGDTVGFVLSNALNITQTLNWLVRMTSEIETNIVAVERITEYTKVENEAPWVTDKRPPPDWPSKGKIQFNNYQVRYRPELDLVLRGITCDIGSMEKIGVVGRTGAGKSSLTNCLFRILEAAGGQIIIDGVDIASIGLHDLREKLTIIPQDPILFSGSLRMNLDPFNNYSDEEIWKALELAHLKSFVASLQLGLSHEVTEAGGNLSIGQRQLLCLGRALLRKSKILVLDEATAAVDLETDNLIQTTIQNEFAHCTVITIAHRLHTIMDSDKVMVLDNGKIIECGSPEELLQIPGPFYFMAKEAGIENVNSTKF
notes: made in house; host or cells: Sf21 insect cells, baculovirus; plasma membrane vesicles
Km [1]: 3.3 ± 2.0 µM

B2: ABCC3 (Homo sapiens) (protein)
chain: MDALCGSGELGSKFWDSNLSVHTENPDLTPCFQNSLLAWVPCIYLWVALPCYLLYLRHHCRGYIILSHLSKLKMVLGVLLWCVSWADLFYSFHGLVHGRAPAPVFFVTPLVVGVTMLLATLLIQYERLQGVQSSGVLIIFWFLCVVCAIVPFRSKILLAKAEGEISDPFRFTTFYIHFALVLSALILACFREKPPFFSAKNVDPNPYPETSAGFLSRLFFWWFTKMAIYGYRHPLEEKDLWSLKEEDRSQMVVQQLLEAWRKQEKQTARHKASAAPGKNASGEDEVLLGARPRPRKPSFLKALLATFGSSFLISACFKLIQDLLSFINPQLLSILIRFISNPMAPSWWGFLVAGLMFLCSMMQSLILQHYYHYIFVTGVKFRTGIMGVIYRKALVITNSVKRASTVGEIVNLMSVDAQRFMDLAPFLNLLWSAPLQIILAIYFLWQNLGPSVLAGVAFMVLLIPLNGAVAVKMRAFQVKQMKLKDSRIKLMSEILNGIKVLKLYAWEPSFLKQVEGIRQGELQLLRTAAYLHTTTTFTWMCSPFLVTLITLWVYVYVDPNNVLDAEKAFVSVSLFNILRLPLNMLPQLISNLTQASVSLKRIQQFLSQEELDPQSVERKTISPGYAITIHSGTFTWAQDLPPTLHSLDIQVPKGALVAVVGPVGCGKSSLVSALLGEMEKLEGKVHMKGSVAYVPQQAWIQNCTLQENVLFGKALNPKRYQQTLEACALLADLEMLPGGDQTEIGEKGINLSGGQRQRVSLARAVYSDADIFLLDDPLSAVDSHVAKHIFDHVIGPEGVLAGKTRVLVTHGISFLPQTDFIIVLADGQVSEMGPYPALLQRNGSFANFLCNYAPDEDQGHLEDSWTALEGAEDKEALLIEDTLSNHTDLTDNDPVTYVVQKQFMRQLSALSSDGEGQGRPVPRRHLGPSEKVQVTEAKADGALTQEEKAAIGTVELSVFWDYAKAVGLCTTLAICLLYVGQSAAAIGANVWLSAWTNDAMADSRQNNTSLRLGVYAALGILQGFLVMLAAMAMAAGGIQAARVLHQALLHNKIRSPQSFFDTTPSGRILNCFSKDIYVVDEVLAPVILMLLNSFFNAISTLVVIMASTPLFTVVILPLAVLYTLVQRFYAATSRQLKRLESVSRSPIYSHFSETVTGASVIRAYNRSRDFEIISDTKVDANQRSCYPYIISNRWLSIGVEFVGNCVVLFAALFAVIGRSSLNPGLVGLSVSYSLQVTFALNWMIRMMSDLESNIVAVERVKEYSKTETEAPWVVEGSRPPEGWPPRGEVEFRNYSVRYRPGLDLVLRDLSLHVHGGEKVGIVGRTGAGKSSMTLCLFRILEAAKGEIRIDGLNVADIGLHDLRSQLTIIPQDPILFSGTLRMNLDPFGSYSEEDIWWALELSHLHTFVSSQPAGLDFQCSEGGENLSVGQRQLVCLARALLRKSRILVLDEATAAIDLETDNLIQATIRTQFDTCTVLTIAHRLNTIMDYTRVLVLDKGVVAEFDSPANLIAARGIFYGMARDAGLA
notes: made in house; host or cells: Sf21 insect cells, baculovirus (gift from Borst); plasma membrane vesicles
Km [2]: 3.7 ± 1.0 µM
